# Assay results from the supplement of paper PMC10307832.
# Compound: N#CC1(c2ccc(NC(=O)c3cccnc3NCc3ccncc3)cc2)CCCC1 [Apatinib] + Cc1nc(Nc2ncc(C(=O)Nc3c(C)cccc3Cl)s2)cc(N2CCN(CCO)CC2)n1 [Dasatinib] (partner 0.075 µM)
# Experiment: relative viability (nuclei count vs DMSO), 5 days (fraction); higher = more cells survive
# Settings: first compound 0.08 µM
# Outline: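 Medians of duplicate plates are given as relative viability. That measure is the nuclei count in treated wells divided by the count in vehicle wells. Counts were taken on 4× images of lung cancer cell lines in 1536-well plates, 5 days after pin-tool dosing the day after seeding with one drug alone or a fixed anchor-drug dose plus five library-drug doses (not always all listed) in √10 steps.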
row,Cell Line,relative viability
1,EPLC-272H,0.382
2,H3255,0.356
3,HARA,0.373
4,HCC-15,0.686
5,LK-2,0.39
6,NCI-H358,0.188
7,NCI-H522,0.872
8,NCI-H727,0.374
9,NCI-H1395,0.412
10,NCI-H1563,0.444
11,NCI-H1623,0.438
12,NCI-H1792,0.965
13,NCI-H1793,0.427
14,NCI-H1944,0.247
15,NCI-H2170,0.551
16,NCI-H2342,0.267
17,SK-MES-1,0.368
18,SW 900,0.699

# Same assay, conditions: first compound 0.253 µM
row,Cell Line,relative viability
1,201T,0.511
2,A-427,0.66
3,ABC-1,0.631
4,BEN,0.27
5,CAL-12T,0.602
6,COR-L23,0.598
7,COR-L 105,0.349
8,ChaGo-K-1,0.535
9,EKVX,0.621
10,EMC-BAC-2,0.428
11,H3255,0.326
12,HARA,0.242
13,HCC-15,0.626
14,LK-2,0.258
15,NCI-H358,0.151
16,NCI-H522,0.882
17,NCI-H727,0.372
18,NCI-H1395,0.399
19,NCI-H1563,0.41
20,NCI-H1623,0.598
21,NCI-H1792,0.789
22,NCI-H1793,0.345
23,NCI-H1944,0.204
24,NCI-H2170,0.447
25,NCI-H2342,0.295
26,SK-MES-1,0.323
27,SW 900,0.429

# Same assay, conditions: first compound 0.8 µM
row,Cell Line,relative viability
1,201T,0.525
2,A-427,0.798
3,ABC-1,0.492
4,BEN,0.245
5,CAL-12T,0.38
6,COR-L23,0.518
7,COR-L 105,0.351
8,ChaGo-K-1,0.642
9,EKVX,0.478
10,EMC-BAC-2,0.349
11,EPLC-272H,0.358
12,H3255,0.344
13,HARA,0.209
14,HCC-15,0.605
15,LK-2,0.227
16,NCI-H358,0.139
17,NCI-H522,0.884
18,NCI-H727,0.346
19,NCI-H1395,0.367
20,NCI-H1563,0.406
21,NCI-H1623,0.493
22,NCI-H1792,0.763
23,NCI-H1793,0.337
24,NCI-H1944,0.208
25,NCI-H2170,0.489
26,NCI-H2342,0.307
27,SK-MES-1,0.38
28,SW 900,0.545

# Same assay, conditions: first compound 2.53 µM
row,Cell Line,relative viability
1,201T,0.502
2,A-427,0.671
3,ABC-1,0.509
4,BEN,0.242
5,CAL-12T,0.262
6,COR-L23,0.45
7,COR-L 105,0.3
8,ChaGo-K-1,0.547
9,EKVX,0.361
10,EMC-BAC-2,0.282
11,EPLC-272H,0.355
12,H3255,0.255
13,HARA,0.213
14,HCC-15,0.574
15,LK-2,0.24
16,NCI-H358,0.206
17,NCI-H522,0.892
18,NCI-H727,0.29
19,NCI-H1395,0.349
20,NCI-H1563,0.475
21,NCI-H1623,0.545
22,NCI-H1792,0.573
23,NCI-H1793,0.37
24,NCI-H1944,0.254
25,NCI-H2170,0.464
26,NCI-H2342,0.28
27,SK-MES-1,0.348
28,SW 900,0.476

# Same assay, conditions: first compound 8 µM
row,Cell Line,relative viability
1,201T,0.423
2,A-427,0.575
3,ABC-1,0.484
4,BEN,0.265
5,CAL-12T,0.234
6,COR-L23,0.405
7,COR-L 105,0.269
8,ChaGo-K-1,0.501
9,EKVX,0.325
10,EMC-BAC-2,0.293
11,EPLC-272H,0.335
12,H3255,0.366
13,HARA,0.248
14,HCC-15,0.63
15,LK-2,0.257
16,NCI-H358,0.186
17,NCI-H522,0.782
18,NCI-H727,0.42
19,NCI-H1395,0.378
20,NCI-H1563,0.451
21,NCI-H1623,0.595
22,NCI-H1792,0.512
23,NCI-H1793,0.3
24,NCI-H1944,0.249
25,NCI-H2170,0.572
26,NCI-H2342,0.283
27,SK-MES-1,0.307
28,SW 900,0.491
